Measured values reported in patent US10501481B2, “Heterocyclic compounds and their use in preventing or treating bacterial infections” (priority 2015, dated 2019).

How the values were obtained:
[1] = biological target: T1, SHV-1 (Klebsiella pneumoniae, UniProt P0AD64); assay: β-lactamase inhibitory activity, nitrocefin hydrolysis; type: biochemical
T1 construct: made in house; host or cells: E. coli
Procedure: (§1) Enzyme activity was monitored by spectrophotometric measurement of nitrocefin (NCF-TOKU-E, N005) hydrolysis at 485 nm, at room temperature and in assay buffer A: 100 mM Phosphate pH7, 2% glycerol and 0.1 mg/mL Bovine serum albumin (Sigma, B4287). […] To a transparent polystyrene plate (Corning, 3628) were added in each well 5 μL DMSO or inhibitor dilutions in DMSO and 80 μL enzyme in buffer A. Plates were immediately read at 485 nm in a microplate spectrophotometer (BioTek, PowerWave HT) to enable background subtraction. After 30 min of pre-incubation at room temperature, 15 μL of NCF (200 μM final) were finally added in each well. Final enzyme concentrations were 0.1 nM (TEM-1), 0.075 nM (SHV-1), 0.4 nM (CTX-M-15), 1 nM (KPC-2), 0.2 nM (P99 AmpC), 0.2 nM (CMY-37), 0.4 nM (AmpC P. aeruginosa), 0.2 nM (OXA-1), 1.2 nM (OXA-11), 0.4 nM (OXA-15) and 0.3 nM (OXA-48). After 20 min incubation at room temperature, plates were once again read at 485 nm. Enzyme activity was obtained by subtracting the final signal by the background, and was converted to enzyme inhibition using non inhibited wells. IC50 curves were fitted to a classical Langmuir equilibrium model with Hill slope using XLFIT (IDBS).

[2] = biological target: T2, P99 AmpC (Enterobacter cloacae, UniProt P05364); assay: as above; type: biochemical; details: class (C); 30 min pre-incubation; nitrocefin 200 μM
T2 construct: made in house; host or cells: E. coli
T2 sequence (P05364 21-381): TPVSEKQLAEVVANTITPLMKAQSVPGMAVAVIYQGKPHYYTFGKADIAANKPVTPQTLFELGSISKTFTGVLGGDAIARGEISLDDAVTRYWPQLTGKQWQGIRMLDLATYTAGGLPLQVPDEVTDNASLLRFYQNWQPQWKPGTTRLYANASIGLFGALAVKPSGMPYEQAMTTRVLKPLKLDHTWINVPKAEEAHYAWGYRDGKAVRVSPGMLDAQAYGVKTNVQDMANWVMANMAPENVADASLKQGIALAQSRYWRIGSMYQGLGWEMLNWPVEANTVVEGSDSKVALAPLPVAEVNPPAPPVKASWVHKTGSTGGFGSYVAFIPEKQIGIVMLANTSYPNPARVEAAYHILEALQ
Procedure: as §1

[3] = biological target: AmpC P. aeruginosa (Pseudomonas aeruginosa, UniProt P24735); assay: biochemical
Chain of AmpC P. aeruginosa (P24735 27-397): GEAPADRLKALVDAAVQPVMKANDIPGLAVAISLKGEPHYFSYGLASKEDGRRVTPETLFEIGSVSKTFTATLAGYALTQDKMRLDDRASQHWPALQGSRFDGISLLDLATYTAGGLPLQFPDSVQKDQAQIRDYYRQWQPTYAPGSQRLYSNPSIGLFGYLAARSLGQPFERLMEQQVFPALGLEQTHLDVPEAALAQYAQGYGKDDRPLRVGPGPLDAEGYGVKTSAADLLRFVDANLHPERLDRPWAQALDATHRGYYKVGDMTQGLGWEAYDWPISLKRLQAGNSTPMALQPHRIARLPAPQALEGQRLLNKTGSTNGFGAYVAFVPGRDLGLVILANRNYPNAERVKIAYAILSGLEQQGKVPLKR
Procedure: Enzyme activity was monitored by spectrophotometric measurement of nitrocefin (NCF-TOKU-E, N005) hydrolysis at 485 nm, at room temperature and in assay buffer A: 100 mM Phosphate pH7, 2% glycerol and 0.1 mg/mL Bovine serum albumin (Sigma, B4287). Enzymes were cloned in E. coli expression vector, expressed and purified in house using classical procedures. To a transparent polystyrene plate (Corning, 3628) were added in each well 5 μL DMSO or inhibitor dilutions in DMSO and 80 μL enzyme in buffer A. Plates were immediately read at 485 nm in a microplate spectrophotometer (BioTek, PowerWave HT) to enable background subtraction. After 30 min of pre-incubation at room temperature, 15 μL of NCF (200 μM final) were finally added in each well. Final enzyme concentrations were 0.1 nM (TEM-1), 0.075 nM (SHV-1), 0.4 nM (CTX-M-15), 1 nM (KPC-2), 0.2 nM (P99 AmpC), 0.2 nM (CMY-37), 0.4 nM (AmpC P. aeruginosa), 0.2 nM (OXA-1), 1.2 nM (OXA-11), 0.4 nM (OXA-15) and 0.3 nM (OXA-48). After 20 min incubation at room temperature, plates were once again read at 485 nm. Enzyme activity was obtained by subtracting the final signal by the background, and was converted to enzyme inhibition using non inhibited wells. IC50 curves were fitted to a classical Langmuir equilibrium model with Hill slope using XLFIT (IDBS).

[4] = biological target: T3, OXA-1 (Escherichia coli, UniProt P13661); assay: β-lactamase inhibitory activity, nitrocefin hydrolysis; type: biochemical
T3 construct: made in house; host or cells: E. coli
T3 sequence (P13661 26-276): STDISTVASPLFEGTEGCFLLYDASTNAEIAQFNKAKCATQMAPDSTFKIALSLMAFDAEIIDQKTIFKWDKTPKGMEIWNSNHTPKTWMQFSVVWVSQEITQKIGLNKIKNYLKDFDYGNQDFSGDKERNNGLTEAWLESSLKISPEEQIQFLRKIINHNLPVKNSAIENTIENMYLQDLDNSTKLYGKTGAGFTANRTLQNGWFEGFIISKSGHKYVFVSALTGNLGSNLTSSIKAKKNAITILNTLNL
Procedure: as §1

[5] = biological target: T4, OXA-15 (Pseudomonas aeruginosa, UniProt Q51574); assay: as above; type: biochemical
T4 construct: made in house; host or cells: E. coli
T4 sequence (Q51574 22-275): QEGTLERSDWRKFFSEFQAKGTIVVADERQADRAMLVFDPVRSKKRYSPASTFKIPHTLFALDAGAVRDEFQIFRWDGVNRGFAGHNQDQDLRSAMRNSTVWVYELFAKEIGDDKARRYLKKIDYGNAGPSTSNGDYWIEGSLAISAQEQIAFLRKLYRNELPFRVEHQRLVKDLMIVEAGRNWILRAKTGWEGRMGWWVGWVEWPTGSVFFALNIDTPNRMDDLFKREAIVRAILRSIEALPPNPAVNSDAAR
Procedure: as §1

[6] = biological target: T5, OXA-48 (Klebsiella pneumoniae, UniProt Q6XEC0); assay: as above; type: biochemical
T5 construct: made in house; host or cells: E. coli
T5 sequence (Q6XEC0 23-265 limits assumed): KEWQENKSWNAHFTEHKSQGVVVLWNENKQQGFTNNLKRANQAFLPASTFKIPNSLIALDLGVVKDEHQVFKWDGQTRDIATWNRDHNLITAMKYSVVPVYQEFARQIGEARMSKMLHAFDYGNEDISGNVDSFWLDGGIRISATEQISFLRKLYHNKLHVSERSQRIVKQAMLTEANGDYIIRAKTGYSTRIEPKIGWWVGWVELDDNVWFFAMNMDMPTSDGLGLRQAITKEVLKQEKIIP
Procedure: as §1

[7] = system: K. pneumoniae BAA-1898 (TEM-1, SHV-11, SHV-12, KPC-2); assay: microbe, parasite or virus in culture; type: cell-based
[8] = system: E. coli UFR61O (TEM-1, KPC-2); assay: MIC broth microdilution, alone and synergy with ceftazidime; details: strain UFR61O; compound fixed at 4 μg/mL
[9] = system: K. pneumoniae 160143 (TEM-1, SHV-1, CTX-M-15, KPC-2, OXA-1); assay: as above
[10] = system: K. pneumoniae UFR68 (TEM-1, SHV-11, CTX-M-15, KPC-3); assay: as above
[11] = system: E. cloacae P99 (AmpC); assay: as above
[12] = system: E. cloacae UFR85 (TEM-1, CTX-M-15, derepressed AmpC); assay: as above; details: strain UFR85; compound fixed at 4 μg/mL
[13] = system: E. cloacae UFR70 (TEM-1, CTX-M-15, CMY-2, OXA-1, Porin loss); assay: as above
[14] = system: K. pneumoniae UFR77 (CMY-2); assay: as above
[15] = system: E. coli UFR18 (CTX-M-15, OXA-204); assay: as above
[16] = system: E. coli 131119 (TEM-1, OXA-48); assay: as above; details: strain 131119; compound fixed at 4 μg/mL
[17] = system: K. pneumoniae 6299 (TEM-1, SHV-11, OXA-163); assay: as above
[18] = system: E. coli RGN238 (OXA-1); assay: as above
[19] = system: E. coli 190317 (TEM-1, SHV-12, CTX-M-15, OXA-1); assay: as above; details: strain 190317; compound fixed at 4 μg/mL
[20] = system: E. coli UFR32 (TEM-1, VEB-1, OXA-10); assay: as above; details: strain UFR32; compound fixed at 4 μg/mL
[21] = system: E. cloacae UFR38 (CTX-M-15, NDM-1); assay: as above
[22] = system: E. coli UFR52 (TEM-1, SHV-12, IMP-8); assay: as above
[23] = system: P. aeruginosa CIP107051 (TEM-24); assay: as above
[24] = Klebsiella pneumoniae, read-out: MIC compounds of the invention alone
[25] = Enterobacter cloacae, read-out: MIC compounds of the invention alone
[26] = Escherichia coli, read-out: MIC compounds of the invention alone

T1 sequence (P0AD64 22-286): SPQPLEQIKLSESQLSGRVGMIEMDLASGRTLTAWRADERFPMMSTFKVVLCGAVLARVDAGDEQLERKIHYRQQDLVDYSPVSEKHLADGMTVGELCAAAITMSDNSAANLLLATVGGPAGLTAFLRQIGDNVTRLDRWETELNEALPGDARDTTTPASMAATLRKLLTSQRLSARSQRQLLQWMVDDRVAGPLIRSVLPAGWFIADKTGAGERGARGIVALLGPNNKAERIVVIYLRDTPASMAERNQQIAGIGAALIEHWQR

O=C1N2Cc3c(sc(=O)n3CCO)C(C2)N1OS(=O)(=O)[O-].[Na+] (centres unmarked) [Example 5, Sodium [5-(2-hydroxyethyl)-4,9-dioxo-3-thia-5,8,10-triaza-tricyclo[6.2.1.0^2.6]undec-2(6)-en-10-yl) sulfate]
IC50 [1]: 0.006 µM | IC50 [2]: 0.024 µM | IC50 [3]: 0.37 µM | IC50 [4]: 0.31 µM | IC50 [5]: 0.19 µM | IC50 [6]: 0.00079 µM | MIC ([7]; Klebsiella pneumoniae, BAA1898, read-out: MIC compounds of the invention alone): 8 µg/mL | MIC of CAZ in combination with compound at 4 μg/mL ([7]; strain BAA-1898, compound fixed at 4 μg/mL): 4 µg/mL | MIC of CAZ in combination with compound at 4 μg/mL [8]: <0.25 µg/mL | MIC [9, 24]: 8 µg/mL | MIC of CAZ in combination with compound at 4 μg/mL ([9]; strain 160143, compound fixed at 4 μg/mL): <0.25 µg/mL | MIC [10, 24]: 8 µg/mL | MIC of CAZ in combination with compound at 4 μg/mL ([10]; strain UFR68, compound fixed at 4 μg/mL): ≤0.25 µg/mL | MIC [11, 25]: 8 µg/mL | MIC of CAZ in combination with compound at 4 μg/mL ([11]; strain P99, compound fixed at 4 μg/mL): 0.25 µg/mL | MIC of CAZ in combination with compound at 4 μg/mL [12]: <0.25 µg/mL | MIC [13, 25]: 1 µg/mL | MIC of CAZ in combination with compound at 4 μg/mL ([13]; strain UFR70, compound fixed at 4 μg/mL): <0.25 µg/mL | MIC [14, 24]: 4 µg/mL | MIC of CAZ in combination with compound at 4 μg/mL ([14]; strain UFR77, compound fixed at 4 μg/mL): <0.25 µg/mL | MIC [15, 26]: 2 µg/mL | MIC of CAZ in combination with compound at 4 μg/mL ([15]; strain UFR18, compound fixed at 4 μg/mL): <0.25 µg/mL | MIC of CAZ in combination with compound at 4 μg/mL [16]: <0.25 µg/mL | MIC [17, 24]: 8 µg/mL | MIC of CAZ in combination with compound at 4 μg/mL ([17]; strain 6299, compound fixed at 4 μg/mL): ≤0.125 µg/mL | MIC [18, 26]: 1 µg/mL | MIC of CAZ in combination with compound at 4 μg/mL ([18]; strain RGN238, compound fixed at 4 μg/mL): <0.25 µg/mL | MIC of CAZ in combination with compound at 4 μg/mL [19]: <0.25 µg/mL | MIC of CAZ in combination with compound at 4 μg/mL [20]: <0.25 µg/mL | MIC [21, 25]: 2 µg/mL | MIC of CAZ in combination with compound at 4 μg/mL ([21]; strain UFR38, compound fixed at 4 μg/mL): <0.25 µg/mL | MIC [22, 26]: 0.5 µg/mL | MIC of CAZ in combination with compound at 4 μg/mL ([22]; strain UFR52, compound fixed at 4 μg/mL): <0.25 µg/mL | MIC ([23]; Pseudomonas aeruginosa, CIP107051, read-out: MIC compounds of the invention alone): > 32 µg/mL | MIC of CAZ in combination with compound at 4 μg/mL ([23]; strain CIP107051, compound fixed at 4 μg/mL): 4 µg/mL
